In PubChem BioAssay (NCI):
Values joined by “and” are separate entries in the source; they are usually repeats but may differ in a detail not shown here. Identical values can stand only once.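 Values below derive from 48-hour exposures of cells grown in 96-well plates, with endpoints linearly interpolated between the two concentrations bracketing the appropriate inhibition level. GI50: concentration for 50% inhibition of growth. At the TGI there is no net growth.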

Tests used:
Test in all cases: NCI anticancer screen, dose series, 48 h
A549 NSCLC = test system: A549 NSCLC
CAKI-1 renal = test system: CAKI-1 renal
EKVX NSCLC = test system: EKVX NSCLC
HL-60(TB) leukemia = test system: HL-60(TB) leukemia
HOP-92 NSCLC = test system: HOP-92 NSCLC
LOX IMVI melanoma = test system: LOX IMVI melanoma
RXF 393 renal = test system: RXF 393 renal
SK-MEL-28 melanoma = test system: SK-MEL-28 melanoma
SK-MEL-5 melanoma = test system: SK-MEL-5 melanoma
SNB-75 CNS = test system: SNB-75 CNS

Structure (SMILES) | GI50 (A549 NSCLC) | TGI (A549 NSCLC) | GI50 (CAKI-1 renal) | TGI (CAKI-1 renal) | GI50 (EKVX NSCLC) | TGI (EKVX NSCLC) | GI50 (HL-60(TB) leukemia) | TGI (HL-60(TB) leukemia) | GI50 (HOP-92 NSCLC) | TGI (HOP-92 NSCLC) | GI50 (LOX IMVI melanoma) | TGI (LOX IMVI melanoma) | GI50 (RXF 393 renal) | TGI (RXF 393 renal) | GI50 (SK-MEL-28 melanoma) | TGI (SK-MEL-28 melanoma) | GI50 (SK-MEL-5 melanoma) | TGI (SK-MEL-5 melanoma) | GI50 (SNB-75 CNS) | TGI (SNB-75 CNS)
CCOc1ccccc1-n1c(CN2CCN(C(=O)COc3ccc(CNCCCCCCN4C5CCCC4CC(OC(=O)Nc4cc(C)ccc4OC)C5)cc3)CC2)nc2ccccc2c1=O (configuration not stated) | 1.67 µM | 3.27 µM | 1.63 µM | 3.06 µM | 1.67 µM | 3.33 µM | 0.64 µM | 1.35 µM | 1.37 µM | 2.76 µM | 0.582 µM | 1.08 µM | 1.38 µM | 2.88 µM | 1.81 µM | 3.25 µM | 1.52 µM | 2.92 µM | 1.4 µM | 2.72 µM
O=C(CN1CCN(c2cc3c(cc2F)c(=O)c(C(=O)N/N=C/c2ccccc2O)cn3C2CC2)CC1)N/N=C\c1ccccc1O | 0.569 µM | > 100 µM | 1.1 µM | > 100 µM | 1.11 µM | > 100 µM | 0.36 µM | – | 2.15 µM | > 100 µM | 0.232 µM | > 75.7 µM | 1.32 µM | > 100 µM | 0.657 µM | > 100 µM | 0.876 µM | 2.95 µM | 1.11 µM | > 100 µM
COc1cc(/C=C/c2cc(/C=C/c3ccc(O)c(OC)c3)n(C(=O)Nc3ccc(F)cc3)n2)ccc1O | 2.44 µM | 18.3 µM | 0.77 µM | 49.5 µM | 3.05 µM | 43.7 µM | 0.364 µM | 1.93 µM | 2.12 µM | 8.07 µM | 0.476 µM | 4.26 µM | 0.268 µM | 0.994 µM | 0.912 µM | 7.84 µM | 0.418 µM | 3.25 µM | 0.551 µM | 9.48 µM
CCc1ccc2c(c1)C(=O)c1c-2n(CCCBr)c(=O)c2cc([N+](=O)[O-])ccc12 | > 50 µM | > 50 µM | > 50 µM | > 50 µM | > 50 µM | > 50 µM | > 50 µM | > 50 µM | 16 µM | > 50 µM | > 50 µM | > 50 µM | 21.8 µM | > 50 µM | > 50 µM | > 50 µM | > 50 µM | > 50 µM | 7.88 µM | 19.9 µM
O=C(CCl)N1c2ccccc2Oc2ccc3ccccc3c21 | 1.9 µM | 3.81 µM | 1.02 µM | 3.8 µM | 2.2 µM | 5.9 µM | 1.45 µM | 4.86 µM | 1.59 µM | 3.31 µM | 0.347 µM | 1.41 µM | 1.73 µM | 3.17 µM | 1.83 µM | 3.34 µM | 1.59 µM | 2.98 µM | 1.47 µM | 2.82 µM
Cc1nc2c(nc1C)C(=O)c1ccccc1C2=O | – | 3.41 µM | – | 61.9 µM | – | 41.5 µM | – | 13.7 µM | – | 45 µM | – | 7.11 µM | – | 53.9 µM | – | 4.76 µM | – | 0.518 µM | – | 6.15 µM
O=C(O)c1cc(C(=O)O)cc(N2C(=O)c3ccccc3C2=O)c1 | – | > 100 µM | – | > 100 µM | – | > 100 µM | – | > 100 µM | – | > 100 µM | – | > 100 µM | – | > 100 µM | – | > 100 µM | – | > 100 µM | – | > 100 µM
CSc1ccccc1C#C/C=C\C#Cc1ccccc1N1CCCC1=O | > 11 µM | > 50 µM | > 10.3 µM | > 50 µM | > 10.3 µM | > 50 µM | 2.43 µM | – | – | > 50 µM | – | > 50 µM | 2.91 µM | 25.8 µM | – | > 50 µM | – | > 18.3 µM | > 10.8 µM | > 50 µM
COc1cc(C(=O)/C=C/c2sc(Cl)nc2Cl)cc(OC)c1OC | 3.18 µM | 11.8 µM | 1.61 µM | 2.99 µM | 1.67 µM | 3.12 µM | 1.82 µM | 4.45 µM | 1.6 µM | 3.19 µM | 1.58 µM | 2.97 µM | 1.7 µM | 3.12 µM | 1.78 µM | 3.27 µM | 1.95 µM | 3.96 µM | 1.66 µM | 3.8 µM
Cc1cc(=O)[nH]c2cc3oc4ccccc4c3cc12 | – | > 100 µM | – | > 100 µM | – | > 100 µM | – | 59.3 µM | – | > 100 µM | – | > 100 µM | – | > 100 µM | – | > 100 µM | – | > 100 µM | – | > 100 µM
COc1cc2nc(-c3ccc(C(F)(F)F)cc3)cc(OCCCN3CCC(O)CC3)c2cc1OC | 1.65 µM | 18.4 µM | 0.376 µM | 13.1 µM | 1.03 µM | 21.7 µM | 13.9 µM | 31.9 µM | 1.68 µM | 9.64 µM | 0.19 µM | 0.447 µM | 1.34 µM | 7.53 µM | 2.38 µM | 11.5 µM | 1.43 µM | 4.72 µM | 2.58 µM | 10.8 µM
O=C1c2cccnc2-c2nc(-c3ccccc3[N+](=O)[O-])cc3c2c1nc1ccccc13 | 14.4 µM | 30.1 µM | 18 µM | 43.3 µM | 31.6 µM | > 74.3 µM | > 100 µM | > 100 µM | 8.7 µM | > 100 µM | 2.84 µM | 13.7 µM | 20.7 µM | 98.3 µM | 27.6 µM | > 63.5 µM | 2.6 µM | 8.23 µM | 17.3 µM | 52 µM
COc1cc2c(c(OC)c1O)C(=O)C(OC)C(c1ccc(O)c(O)c1)O2 (configuration not stated) | 1.31 µM | > 100 µM | 0.336 µM | > 100 µM | 15.2 µM | > 100 µM | 0.072 µM | 3.62 µM | 0.697 µM | > 28.9 µM | 0.352 µM | > 100 µM | 0.305 µM | > 100 µM | 10.1 µM | > 100 µM | 0.757 µM | 3.26 µM | 0.0405 µM | > 79.3 µM
CCOC(=O)c1ncn2c1[nH]c(=S)c1ccccc12 | – | > 100 µM | – | > 100 µM | – | > 100 µM | – | > 100 µM | – | > 100 µM | – | > 100 µM | – | > 100 µM | – | > 100 µM | – | > 100 µM | – | > 100 µM
Cc1cc2nc(C(Cl)Cl)nc(-c3ccc(Cl)cc3)n2n1 | 0.448 µM | 3.28 µM | 0.798 µM | 4.11 µM | 1.6 µM | 4.3 µM | 1.11 µM | – | 1.53 µM | 4.66 µM | 3.95 µM | > 100 µM | 0.764 µM | 2.27 µM | 1.63 µM | 3.38 µM | 1.68 µM | 3.48 µM | 1.1 µM | 4.34 µM
C/C(CCn1[nH]c(=O)ccc1=O)=N\O | – | > 100 µM | – | > 100 µM | – | > 100 µM | – | > 100 µM | – | > 100 µM | – | > 100 µM | – | > 100 µM | – | > 100 µM | – | > 100 µM | – | > 100 µM
COc1ccc(NC(=O)c2cc(OC)cc(OC)c2)cc1 | – | > 100 µM | – | > 100 µM | – | > 100 µM | – | 39.1 µM | – | > 100 µM | – | > 100 µM | – | 55.9 µM | – | > 100 µM | – | > 100 µM | – | > 83.6 µM
COc1ccc(-c2cc(-c3ccc(Nc4nc(Nc5ccccc5)nc(Nc5ccc(Cl)cc5)n4)cc3)nc(N)c2C#N)cc1 | 2.74 µM | > 50 µM | 0.705 µM | 1.49 µM | 1.44 µM | > 22.9 µM | 1.15 µM | 6.41 µM | 0.782 µM | 2.62 µM | 0.837 µM | 1.58 µM | 0.654 µM | 1.89 µM | 0.857 µM | 1.76 µM | 1.18 µM | 3.03 µM | 0.737 µM | 2.71 µM
O=C(N/C(=C\c1cc(Cl)ccc1Cl)c1nc2[nH]c(=S)[nH]c(=O)c2[nH]1)c1ccccc1 | – | > 100 µM | – | > 100 µM | – | > 79.6 µM | – | 36.3 µM | – | > 75.1 µM | – | 91.6 µM | – | 41.5 µM | – | > 83.5 µM | – | > 100 µM | – | > 100 µM
CC1(C)COC(c2ccc(C(F)(F)F)cc2C(O)c2ccc3ccccc3c2)=N1 (configuration not stated) | > 10 µM | > 100 µM | > 10 µM | > 100 µM | > 100 µM | > 100 µM | > 10 µM | > 100 µM | – | > 100 µM | > 100 µM | > 100 µM | > 10 µM | > 10 µM and 44.3 µM | > 100 µM | > 100 µM | > 100 µM | > 100 µM | > 10 µM | > 10 µM and 37.9 µM
